The subject of assay [1] is peripheral blood mononuclear cell (PBMC). The assay can be described thus: Peripheral blood mononuclear cell assay. The settings on record: compounds 1h, washed, 15 hour incubation, average of one to four donors.
Method: Selected compounds were tested in an in vitro peripheral blood mononuclear cell (PBMC) assay. […] Serially diluted tested compounds were added to wells in 50 μl of cultivation medium and cells were incubated with the compounds for 1h at 37° C. with 5% CO2. Plates with cells were then spun 500 g for 5 minutes and the medium was removed. Cells were washed twice with the cell culture medium by the use of centrifugation and gently resuspended in 100 μl medium without compounds. After 15 hour incubation at 37° C. with 5% CO2, the cell culture medium was collected and the levels of interferon-alpha (INF-α), interferon-gamma (INF-γ) and tumor necrosis factor-alpha (TNF-α) were determined with ProcartaPlex Assays (ThermoFisher, Waltham, USA) and MAGPIX System (Merck KGaA, Darmstadt, Germany). […] Values reported are an average of runs from one to four donors.
Assay [2] deals with human wild type STING (WT STING) (Homo sapiens, UniProt Q86WV6, H232R). The assay can be described thus: 293T WT STING standard reporter assay. The format is cell-based. The settings on record: 293T WT STING EC50, 293T wtSTING-FL cells; standard reporter assay without digitonin; 7 hours; ISRE firefly luciferase. On the technique in general: In a reporter assay the amount or activity of a reporter protein is the signal.
human wild type STING (WT STING), sequence (Q86WV6 whole entry H232R): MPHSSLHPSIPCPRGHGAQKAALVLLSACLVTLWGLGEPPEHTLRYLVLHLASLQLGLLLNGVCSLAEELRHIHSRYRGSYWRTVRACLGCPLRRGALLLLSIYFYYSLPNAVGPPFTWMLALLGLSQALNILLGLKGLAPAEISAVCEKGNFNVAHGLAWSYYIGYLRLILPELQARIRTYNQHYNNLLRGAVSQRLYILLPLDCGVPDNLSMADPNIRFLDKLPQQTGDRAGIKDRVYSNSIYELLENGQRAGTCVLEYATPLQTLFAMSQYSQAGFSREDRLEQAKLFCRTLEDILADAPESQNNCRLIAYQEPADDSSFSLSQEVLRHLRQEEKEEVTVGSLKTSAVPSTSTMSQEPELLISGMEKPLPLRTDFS

[3] abbreviates: read-out: PBMC EC50 IFN-α, interferon-alpha level in medium.
Setting [4] is: read-out: PBMC EC50 IFN-γ, interferon-gamma level in medium.
The mark [5] stands for this setting: read-out: PBMC EC50 TNF-α, tumor necrosis factor-alpha level in medium.

Drawing on patent US12318403B2, “2′3′-cyclic dinucleotides and prodrugs thereof” (INSTITUTE OF ORGANIC CHEMISTRY AND BIOCHEMISTRY ASCR, V.V.I., priority 2019, dated 2025), this text covers EC50 for 20 compounds.

One may read the EC50 as the concentration at which the effect is half-maximal.

Like-named read-outs stand apart in the source and are kept apart here.

As to `CCCCCCCCCC(=O)Oc1ccc(CSP2(=O)OC[C@H]3O[C@@H](n4cnc5c(N)ncnc54)[C@H](F)[C@@H]3OCP(=O)(O)OC[C@H]3O[C@@H](n4cnc5c(=O)[nH]c(N)nc54)[C@H](O2)[C@@H]3F)cc1` (single isomer, unassigned) [Compound 35a], the EC50 amounted to 2600 nM in assay [1] (setting [3]), 3200 nM in assay [1] (setting [4]) and 1900 nM in assay [1] (setting [5]).
The corresponding values for `CCCCCCCCCCCC(=O)Oc1ccc(CSP2(=O)OC[C@H]3O[C@@H](n4cnc5c(N)ncnc54)[C@H](F)[C@@H]3OCP(=O)(O)OC[C@H]3O[C@@H](n4cnc5c(=O)[nH]c(N)nc54)[C@H](O2)[C@@H]3F)cc1` (single isomer, unassigned) [Compound 38a] are 1400 nM, 2600 nM and 1400 nM.
The corresponding values for `CC(C)(C)C(=O)OCOc1ccc(CSP2(=O)OC[C@H]3O[C@@H](n4cnc5c(N)ncnc54)[C@H](F)[C@@H]3OCP(=O)(O)OC[C@H]3O[C@@H](n4cnc5c(=O)[nH]c(N)nc54)[C@H](O2)[C@@H]3F)cc1` (single isomer, unassigned) [Compound 39b] are 900 nM, 1400 nM and 1000 nM.
The corresponding values for `CCCCCC(=O)Oc1ccc(C(=O)Oc2ccc(CSP3(=O)OC[C@H]4O[C@@H](n5cnc6c(N)ncnc65)[C@H](F)[C@@H]4OCP(=O)(O)OC[C@H]4O[C@@H](n5cnc6c(=O)[nH]c(N)nc65)[C@H](O3)[C@@H]4F)cc2)cc1` (single isomer, unassigned) [Compound 40b] are 8100 nM, 10400 nM and 10400 nM.
`CC(C)(C)C(=O)OCSP1(=O)CO[C@H]2[C@@H](F)[C@H](n3cnc4c(N)ncnc43)O[C@@H]2COP(=O)(O)O[C@@H]2[C@H](F)[C@@H](CO1)O[C@H]2n1cnc2c(=O)[nH]c(N)nc21` (single isomer, unassigned) [Compound 41a] showed an EC50 in assay [2] of 10400 nM.
Same read-out and setting: next, `CC(C)(C)C(=O)OCSP1(=O)CO[C@H]2[C@@H](F)[C@H](n3cnc4c(N)ncnc43)O[C@@H]2COP(=O)(O)O[C@@H]2[C@H](F)[C@@H](CO1)O[C@H]2n1cnc2c(=O)[nH]c(N)nc21` (single isomer, unassigned) [Compound 41b]: 87800 nM; `CCCCCC(=O)Oc1ccc(CSP2(=O)CO[C@H]3[C@@H](F)[C@H](n4cnc5c(N)ncnc54)O[C@@H]3COP(=O)(O)O[C@@H]3[C@H](F)[C@@H](CO2)O[C@H]3n2cnc3c(=O)[nH]c(N)nc32)cc1` (single isomer, unassigned) [Compound 42a]: 300 nM.
Consider `CCCCCCCCCCCC(=O)OCSP1(=O)OC[C@H]2O[C@@H](n3cnc4c(N)ncnc43)[C@H](F)[C@@H]2OCP(=O)(O)OC[C@H]2O[C@@H](n3cnc4c(=O)[nH]cnc43)[C@H](O1)[C@@H]2F` (single isomer, unassigned) [Compound 56a], for which the EC50 in assay [1] (setting [3]) is 1600 nM; in assay [1] (setting [4]), 2200 nM; in assay [1] (setting [5]), 1800 nM.
The corresponding values for `CCCCCCCCCCCC(=O)OCSP1(=O)OC[C@H]2O[C@@H](n3cnc4c(N)ncnc43)[C@H](F)[C@@H]2OCP(=O)(O)OC[C@H]2O[C@@H](n3cnc4c(=O)[nH]cnc43)[C@H](O1)[C@@H]2F` (single isomer, unassigned) [Compound 56b] are 3000 nM, 1300 nM and 2000 nM.
The corresponding values for `CCCCCCCCCCCC(=O)OCSP1(=O)OC[C@H]2O[C@@H](n3cnc4c(N)ncnc43)[C@H](F)[C@@H]2OCP(=O)(O)OC[C@H]2O[C@@H](n3cnc4c(=O)[nH]c(N)nc43)[C@H](O1)[C@@H]2F` (single isomer, unassigned) [Compound 57b] are 1700 nM, 2500 nM and 1600 nM.
The corresponding values for `CCCCCCCCCCCCCCCC(=O)OCSP1(=O)OC[C@H]2O[C@@H](n3cnc4c(N)ncnc43)[C@H](F)[C@@H]2OCP(=O)(O)OC[C@H]2O[C@@H](n3cnc4c(=O)[nH]cnc43)[C@H](O1)[C@@H]2F` (single isomer, unassigned) [Compound 64a] are 600 nM, 2600 nM and 400 nM.
With `CCCCCCCCCCCCCCCC(=O)OCSP1(=O)OC[C@H]2O[C@@H](n3cnc4c(N)ncnc43)[C@H](F)[C@@H]2OCP(=O)(O)OC[C@H]2O[C@@H](n3cnc4c(=O)[nH]cnc43)[C@H](O1)[C@@H]2F` (single isomer, unassigned) [Compound 64b], the EC50 was 1400 nM in assay [1] (setting [3]), 800 nM in assay [1] (setting [4]) and 2000 nM in assay [1] (setting [5]).
The corresponding values for `CCCCCCCCCCCCCC(=O)OCSP1(=O)OC[C@H]2O[C@@H](n3cnc4c(N)ncnc43)[C@H](F)[C@@H]2OCP(=O)(O)OC[C@H]2O[C@@H](n3cnc4c(=O)[nH]cnc43)[C@H](O1)[C@@H]2F` (single isomer, unassigned) [Compound 68a] are 900 nM, 1000 nM and 600 nM.
The corresponding values for `Nc1nc2c(ncn2[C@@H]2O[C@@H]3COP(=O)(O)O[C@H]4[C@@H](O)[C@H](n5cnc6c(N)ncnc65)O[C@@H]4COP(=O)(O)O[C@@H]2[C@@H]3O)c(=O)[nH]1` [2′3′-cGAMP, c[G(2′,5′)pA(3′,5′)p], reference compound] are 300000 nM, 164000 nM and 210000 nM.
The corresponding values for `CCCCCCCCCCCCOC(=O)OCSP1(=O)OC[C@H]2O[C@@H](n3cnc4c(N)ncnc43)[C@H](F)[C@@H]2OCP(=O)(O)OC[C@H]2O[C@@H](n3cnc4c(=O)[nH]cnc43)[C@H](O1)[C@@H]2F` (stereo partly drawn) [Compound 58b, {[(1S,6R,8R,9R,10R,16R,18R,19R)-8-(6-amino-9H-purin-9-yl)-9,19-difluoro-13-hydroxy-3,13-dioxo-18-(6-oxo-6,9-dihydro-1H-purin-9-yl)-2,4,7,11,14,17-hexaoxa-3λ^5,13λ^5-diphosphatricyclo[14.2.1.0^6,10]nonadecan-3-yl]sulfanyl}methyl dodecyl carbonate] are 1200 nM, 1900 nM and 1300 nM.
For `CCCCCCCCCCCCOC(=O)OCSP1(=O)OC[C@H]2O[C@@H](n3cnc4c(N)ncnc43)[C@H](F)[C@@H]2OCP(=O)(O)OC[C@H]2O[C@@H](n3cnc4c(=O)[nH]c(N)nc43)[C@H](O1)[C@@H]2F` (stereo partly drawn) [Compound 59b, {[(1S,6R,8R,9R,10R,16R,18R,19R)-18-(2-amino-6-oxo-6,9-dihydro-1H-purin-9-yl)-8-(6-amino-9H-purin-9-yl)-9,19-difluoro-13-hydroxy-3,13-dioxo-2,4,7,11,14,17-hexaoxa-3λ^5,13λ^5-diphosphatricyclo[14.2.1.0^6,10]nonadecan-3-yl]sulfanyl}methyl dodecyl carbonate], the EC50 came out at 1800 nM in assay [1] (setting [3]), 2200 nM in assay [1] (setting [4]) and 2100 nM in assay [1] (setting [5]).
As for `CCCCCCCC(=O)OCSP1(=O)OC[C@H]2O[C@@H](n3cnc4c(N)ncnc43)[C@H](F)[C@@H]2OCP(=O)(O)OC[C@H]2O[C@@H](n3cnc4c(=O)[nH]cnc43)[C@H](O1)[C@@H]2F` (stereo partly drawn) [Compound 63b, {[(1S,6R,8R,9R,10R,16R,18R,19R)-8-(6-amino-9H-purin-9-yl)-9,19-difluoro-13-hydroxy-3,13-dioxo-18-(6-oxo-6,9-dihydro-1H-purin-9-yl)-2,4,7,11,14,17-hexaoxa-3λ^5,13λ^5-diphosphatricyclo[14.2.1.0^6,10]nonadecan-3-yl]sulfanyl}methyl octanoate], the figures for the EC50 in assay [1] (setting [3]), in assay [1] (setting [4]) and in assay [1] (setting [5]) were 9000 nM, 3700 nM and 8000 nM, respectively.
The corresponding values for `CCCCCCCCCCCCCCOC(=O)OCSP1(=O)OC[C@H]2O[C@@H](n3cnc4c(N)ncnc43)[C@H](F)[C@@H]2OCP(=O)(O)OC[C@H]2O[C@@H](n3cnc4c(=O)[nH]cnc43)[C@H](O1)[C@@H]2F` (stereo partly drawn) [Compound 72b, {[(1S,6R,8R,9R,10R,16R,18R,19R)-8-(6-amino-9H-purin-9-yl)-9,19-difluoro-13-hydroxy-3,13-dioxo-18-(6-oxo-6,9-dihydro-1H-purin-9-yl)-2,4,7,11,14,17-hexaoxa-3λ^5,13λ^5-diphosphatricyclo[14.2.1.0^6,10]nonadecan-3-yl]sulfanyl}methyl tetradecyl carbonate] are 1700 nM, 800 nM and 1600 nM.
The corresponding values for `CCCCCCCCCCCCCCCCOC(=O)OCSP1(=O)OC[C@H]2O[C@@H](n3cnc4c(N)ncnc43)[C@H](F)[C@@H]2OCP(=O)(O)OC[C@H]2O[C@@H](n3cnc4c(=O)[nH]cnc43)[C@H](O1)[C@@H]2F` (stereo partly drawn) [Compound 73b, {[(1S,6R,8R,9R,10R,16R,18R,19R)-8-(6-amino-9H-purin-9-yl)-9,19-difluoro-13-hydroxy-3,13-dioxo-18-(6-oxo-6,9-dihydro-1H-purin-9-yl)-2,4,7,11,14,17-hexaoxa-3λ^5,13λ^5-diphosphatricyclo[14.2.1.0^6,10]nonadecan-3-yl]sulfanyl}methyl hexadecyl carbonate] are 3000 nM, 7000 nM and 4000 nM.
The corresponding values for `CCCCCCCCCCCCCCCCCCOC(=O)OCSP1(=O)OC[C@H]2O[C@@H](n3cnc4c(N)ncnc43)[C@H](F)[C@@H]2OCP(=O)(O)OC[C@H]2O[C@@H](n3cnc4c(=O)[nH]cnc43)[C@H](O1)[C@@H]2F` (stereo partly drawn) [Compound 74b, {[(1S,6R,8R,9R,10R,16R,18R,19R)-8-(6-amino-9H-purin-9-yl)-9,19-difluoro-13-hydroxy-3,13-dioxo-18-(6-oxo-6,9-dihydro-1H-purin-9-yl)-2,4,7,11,14,17-hexaoxa-3λ^5,13λ^5-diphosphatricyclo[14.2.1.0^6,10]nonadecan-3-yl]sulfanyl}methyl octadecyl carbonate] are 2200 nM, 2400 nM and 3000 nM.
